Measured values from patent US12173349B2, “Lung protease nanosensors and uses thereof” (Massachusetts Institute of Technology, priority 2018, dated 2024).
*1 amine or outer side, *2 acyl side, *3 side chain or, on linkers, in order; H or OH if unused. Where no end group is shown, it is not given here. [ ]: non-standard residue; d: D form. ξ: configuration not given here. +10F = isotope-labelled Phe, +10, O=[13C]([13C@H]([13CH2][13c]1[13cH][13cH][13cH][13cH][13cH]1)[15NH][*:1])[*:2]; ξβ3hPhg(2-NO2) = O=C(CC(N[*:1])c1ccccc1[N+](=O)[O-])[*:2]; FAM = carboxyfluorescein fluorophore label; AF488 = Alexa Fluor 488 fluorophore label; +1A = isotope-labelled Ala, +1; +1F = isotope-labelled Phe, +1; +2G = isotope-labelled Gly, +2; +4A = isotope-labelled Ala, +4

Columns and labels:
[1] = system: P. aeruginosa strain PA01 lung infection; experiment: urinary reporter ELISA after intravenous ABNs in bacterial pneumonia model; format: in vivo, mice; settings: for urine signal in ciprofloxacin-treated versus doxycycline-treated mice / urine signal relative to healthy controls: 24 hours post-infection; for urine signal after ciprofloxacin treatment above baseline: 7 days post-infection, 4 days of ciprofloxacin; for increase in urinary reporter after initiation of infection relative to pre-infection: ABNs injected intravenously 24 hours post infection, urine at 1 hour; for ROC AUC, infected from healthy mice: FIG. 11D, n=9 mice; for ROC AUC, ciprofloxacin treated from pre-treatment signal (Treatment): FIG. 12, 7 days post-infection; for ROC AUC, infected from healthy (Infection): FIG. 12, administered prior to drug treatment; for ROC AUC, effective versus ineffective treatment (doxycycline-treated vs ciprofloxacin-treated): treatment started 5 hours post-infection, ABNs 24 hours post-infection
Description: Peptide substrates were coupled to 40 kDa 8-arm PEG-MAL via terminal cysteines on each peptide to generate ABNs for use in vivo (Dudani et al., Adv Funct Mater, 26, 2919, 2016; Kwong et al., Proc Natl Acad Sci, 112, 12627, 2015). Each substrate is barcoded with an independent ligand and a biotin on a stable urinary peptide reporter that can be measured by a sandwich ELISA after proteolysis of the substrate, release of the reporter, and clearance into the urine (Warren et al., Proc Natl Acad Sci USA, 111, 3671, 2014; Lin et al., ACS Nano, 0) (FIGS. 11A and 16). The selection of a pair of distinct, ligand-encoded reporters enables simultaneous, multiplexed administration of the two nanosensors. Following initiation of the infection, ABNs were injected intravenously after 24 hours and collected urine an hour after the administration of the nanosensors.
To evaluate whether the presently disclosed ABNs could be used to monitor clearance of infection, PA01 was instilled intratracheally into mice, the pair of ABNs was administered the following day to confirm and set a baseline for infection in each individual, and then antibiotic treatment was initiated with ciprofloxacin, a commonly used broad spectrum antibiotic with activity against gram-negative bacteria, including PA01 (Zeiler et al., Ciprofloxacin, 14, 1986). The diagnostic ABN injection and urine collection was repeated 7 days post-infection (with an interceding 4 days of drug treatment) to determine whether the substrates could monitor recovery from infection following effective antibiotic treatment (FIG. 12A). After ciprofloxacin treatment, LAS urine signal returned to baseline, though ELA remained elevated (1.2-fold and 2.2-fold above baseline, respectively; […]).
Individual responses to antimicrobial treatment can be highly variable, dependent upon the strain of pathogen and the presence of antibiotic resistance, and current clinical tests take 24-72 hours to identify antibiotic susceptibility (Caliendo et al., Clin Infect Dis, 57, S139, 2013). In addition, current clinical tests used to visualize lung infections (e.g., chest X-ray and computed tomography) are often unable to distinguish active infections from those that have been adequately treated until several weeks after antibiotic therapy is complete, because the airspace opacifications characteristic of pneumonia remain apparent on routine radiography screens (Bruns et al., J Gen Intern Med, 25, 203, 2010). Therefore, the ability of the infection-tracking ABNs to identify successful versus insufficient treatment on an acute time-scale shortly after therapeutic initiation was sought to be evaluated. Only 5 hours after establishing lung infections with PA01, antibiotic treatment was initiated with either ciprofloxacin (efficacious against P. aeruginosa) or doxycycline (ineffective against gram-negative bacteria including P. aeruginosa) (FIG. 13A). The following day, multiplexed LAS-E and ELA-E ABNs were administered and urine was collected. […] The persistent Pseudomonas immunostaining observed following ciprofloxacin treatment might be derived from residual Pseudomonas antigens remaining from lysed bacteria that had not yet been cleared by the immune system. Alternatively, the reduced LAS sensor reading in these treated mice could reflect a suppression of LasA secretion from bacteria as they are killed by the potent antibiotic.
All animal studies were approved by Massachusetts Institute of Technology's Committee on Animal Care. For infection studies, 5-7 week old female CD-1 mice were innoculated intratracheally with 1.25×10^6 CFU of P. aeruginosa strain PA01 in 50 μL of PBS. Bacteria were cultured overnight in LB broth, then subcultured and grown to log phase (OD600≈0.5). Bacteria were pelleted, washed with sterile PBS, and then resuspended to the requisite concentration for intratracheal administration. Mice were administered buprenorphine and meloxicam several hours after infection. […]

[2] = system: 15 proteases in the LUAD protease panel; experiment: in vitro recombinant protease screen of FRET-paired substrates; format: biochemical; settings: fluorescence fold change at 45 minutes; 1 μM substrate, 12.5 nM recombinant enzyme; MP metallo-, SP serine, AP aspartic protease
Description: Hundreds of peptide sequences have been previously designed and validated as protease substrates, leveraging known catalytic specificities of different protease families, published datasets and substrate sequences in databases like cutDB and MEROPS (Igarashi et al., Nucleic Acids Res 35, D546-549, 2007; Rawlings et al., Nucleic Acids Res 46, D624-D632, 2018). Fourteen of these substrates were nominated in an effort to cover the specificity profiles of metallo-, serine and aspartic endoproteases, all of which were included in the LUAD protease panel, and the catalytic activity of each protease-substrate pair was characterized. Quenched probes that incorporated the 14 peptide substrates were synthesized such that they fluoresce upon proteolytic cleavage to enable real-time monitoring of protease activity in vitro (FIG. 3A and Table 2). Each probe was incubated with each protease in the panel and fluorescence was monitored over 45 minutes. Shown are sample kinetic plots monitoring dequenching of the 14 FRET-paired probes when incubated with (above) and without (below) recombinant matrix metalloproteinase 3 (MMP3) (FIG. 3B). […] See also FIG. 19.
Fluorogenic protease substrates were synthesized by CPC Scientific. Recombinant proteases were purchased from Enzo Life Sciences, R&D Systems and Haematologic Technologies. For recombinant protease assays, fluorogenic substrates PPQ1-14 (1 μM final concentration) were incubated in 30 μL final volume in appropriate enzyme buffer, according to manufacturer specifications, with 12.5 nM recombinant enzyme at 37° C. (FIG. 3). Proteolytic cleavage of substrates was quantified by increases in fluorescence over time by fluorimeter (Tecan Infinite M200 Pro). Enzyme cleavage rates were quantified as relative fluorescence increase over time normalized to fluorescence before addition of protease. Hierarchical clustering was performed in GENE-E, using fluorescence fold changes at 45 minutes.

[3] = system: Kras and p53 mutant lung adenocarcinoma (KP mice); experiment: urinary ABN readout and random forest classification in KP lung adenocarcinoma model; format: in vivo
Protocol: To characterize ABN performance in vivo, 14 protease-sensitive ABNs were administered to KP mice and healthy, age and sex-matched controls at 5, 7.5 and 10.5 weeks after tumor initiation. Mouse bladders were voided one hour after intrapulmonary delivery and all fresh urine produced during the subsequent hour (from 60-120 minutes after administration) was pooled and collected. LC-MS/MS was performed and peak area ratios (defined as peak area of urinary reporter divided by peak area of spiked-in internal standard) of protease-sensitive reporters were mean-normalized within each sample to reduce mouse-to-mouse variation.
A random forest classifier was then sought to be built to enable prospective diagnosis of lung cancer in KP mice. Random forest is a high-performance classifier, applicable to a wide variety of classification tasks, that generates a collection of decision trees (a “forest”) that are sampled to produce classification results (Breiman, Machine Learning 45, 5-32, 2001). A random forest classifier was trained using 50% of control mice at 5 weeks, 7.5 weeks and 10.5 weeks, as well as 50% of KP mice at 7.5 weeks (FIG. 6A). The classifier assigned a probability that each mouse belonged to either the KP cohort or the healthy control cohort (FIG. 6B, “Training” panel), achieving perfect separation of control and KP mice. The classifier was then sought to be tested on an independent validation cohort consisting of classifier-naive KP mice at 5 weeks, 7.5 weeks and 10.5 weeks post-induction, as well as the remaining control mice from each time point.
Male B6/SV129 Kras^LSL-G12D/+; Trp53^fl/fl (KP) mice between 18 and 30 weeks old were used for lung adenocarcinoma experiments. Tumors were initiated, as described previously (DuPage et al., Nat Protoc 4, 1064-1072 (2009)), by the intratracheal administration of 50 μL of adenovirus-SPC-Cre (2.5×10^8 PFU in Opti-MEM with 10 mM CaCl2)) under isoflurane anesthesia. […] Tumor growth was monitored by micro computed tomography (microCT) imaging (General Electric) and was scored by a blinded radiation oncologist using MicroView (Parallax Innovations) (Table 4). Tumor volumes were calculated by using the ROI sphere/elliptical tool.
ABN constructs (GluFib-Substrate-PEG-840 kDa) for urinary experiments were synthesized by CPC Scientific (Sunnyvale, CA). ABNs were dosed (50 μL total volume, 20 μM concentration per ABN) by intratracheal intubation, as described above. Bladders were voided 60 minutes after ABN administration and all urine produced 60-120 min after ABN administration was collected using custom tubes in which the animals rest upon 96-well plates that capture urine. Urine was pooled and frozen at −80° C. until analysis by LC-MS/MS.
Liquid chromatography/tandem mass spectrometry was performed by Syneos Health (Princeton, NJ) using a Sciex 6500 triple quadrupole instrument. Briefly, urine samples were treated with UV irradiation to photocleave the ANP linker and liberate the Glu-Fib reporter from residual peptide fragments. Samples were extracted by solid-phase extraction and analyzed by multiple reaction monitoring by LC-MS/MS to quantify concentration of each Glu-Fib mass variant. Analyte quantities were normalized to a spiked-in internal standard and concentrations were calculated from a standard curve using peak area ratio (PAR) to the internal standard. Mean normalization was performed on PAR values to account for mouse-to-mouse differences in ABN inhalation efficiency and urine concentration.
Principal component analysis (PCA) was performed on mean normalized PAR values in the R statistical environment (Team, R.C. R, R Foundation for Statistical Computing, Vienna, Austria, 2017) using the prcomp function. Binary classification was performed using the Caret package (Kuhn, M. caret: Classification and Regression Training. (2017)) in the R statistical environment). […]

Substance	urine signal in ciprofloxacin-treated versus doxycycline-treated mice [1]	urine signal after ciprofloxacin treatment above baseline [1]	increase in urinary reporter after initiation of infection relative to pre-infection [1]	ROC AUC, infected from healthy mice [1]	ROC AUC, ciprofloxacin treated from pre-treatment signal (Treatment) [1]	ROC AUC, infected from healthy (Infection) [1]	urine signal relative to healthy controls ([1]; ciprofloxacin-treated mice)	urine signal relative to healthy controls ([1]; doxycycline-treated mice)	ROC AUC, effective versus ineffective treatment (doxycycline-treated vs ciprofloxacin-treated) [1]	protease class(es) cleaving the substrate in vitro [2]	urinary reporter enrichment relative to healthy controls ([3]; KP7.5 wk urine)	urinary reporter enrichment relative to healthy controls ([3]; KP10.5 wk urine)
ELA-E: elastase substrate with FAM ligand-encoded reporter and biotin (SEQ ID NO: 48), coupled to 40 kDa 8-arm PEG-MAL ([dE]G[dV][dN][dD][dN][dE][dE]G[dF][dF][dS][dA][dR]K(FAM)GGAAFAGC; also: biotin, site not given here, coupled to 40 kDa 8-arm PEG-MAL, site not given here)	not significantly different	2.2 fold	2.6 fold	1.00	0.72	1.00	robustly elevated	robustly elevated	0.536	–	–	–
LAS-E: LasA substrate with AF488 ligand-encoded reporter and biotin (SEQ ID NO: 46), coupled to 40 kDa 8-arm PEG-MAL ([dE]G[dV][dN][dD][dN][dE][dE]G[dF][dF][dS][dA][dR]K(AF488)GGLGGGAGC; also: biotin, site not given here, coupled to 40 kDa 8-arm PEG-MAL, site not given here)	significantly lower	1.2 fold	1.8 fold	0.86	0.88	0.92	–	elevated	0.893	–	–	–
PP02: ABN: reporter eG(+6V)ndneeGF(+1F)s(+1A)r, ANP, substrate PVGLIG, nanocarrier PEG8-40 kDa (chain 1 EGVNDNEEGFFSAR; not fully specified (some residues); printed as PP02: ABN: reporter eG(+6V)ndneeGF(+1F)s(+1A)r, ANP, substrate PVGLIG, nanocarrier PEG8-40 kDa)	–	–	–	–	–	–	–	–	–	metalloproteases or both metalloproteases and aspartic proteases	enriched	enriched
PP04: ABN: reporter e(+2G)Vndnee(+2G)FFs(+4A)r, ANP, substrate PLGLRSW, nanocarrier PEG8-40 kDa (chain 1 [dE][+2G]V[dN][dD][dN][dE][dE][+2G]FF[dS][+4A][dR][ξβ3hPhg(2-NO2)]; also: ANP photolabile linker joins reporter and substrate, sites not given here, PEG8-40 kDa nanocarrier, site not given here)	–	–	–	–	–	–	–	–	–	SP/MP	–	–
PP10: ABN: reporter e(+2G)(+6V)ndneeG(+10F)(+1F)s(+1A)r, ANP, substrate ILSRIVGGG, nanocarrier PEG8-40 kDa (chain 1 [dE][+2G][+6V][dN][dD][dN][dE][dE]G[+10F][+1F][dS][+1A][dR][ξβ3hPhg(2-NO2)]; also: ANP photolabile linker joins reporter and substrate, sites not given here, PEG8-40 kDa nanocarrier, site not given here)	–	–	–	–	–	–	–	–	–	MP/SP/AP	–	–
